Results reported in patent publication US20240409585A1, “MACROCYCLIC IMMUNOMODULATORS” (priority 2021, published 2024).
Bridge positions count the residues as written; N and C are the ends. Square brackets hold non-standard residues; d marks the D form. Peptide text beside a SMILES is read from it. * marks the point of attachment. ξ: configuration not given here. Phe(3-CF3) = N[C@@H](Cc1cccc(C(F)(F)F)c1)C(=O)O; Phe(4-CONH2) = NC(=O)c1ccc(C[C@H](N)C(=O)O)cc1; Phe(4-COOH) = N[C@@H](Cc1ccc(C(=O)O)cc1)C(=O)O; Bip = N[C@@H](Cc1ccc(-c2ccccc2)cc1)C(=O)O; Phe(3-Me) = Cc1cccc(C[C@H](N)C(=O)O)c1; Val(3-OH) = CC(C)(O)[C@H](N)C(=O)O; 3Pal = N[C@@H](Cc1cccnc1)C(=O)O; 4Pal = N[C@@H](Cc1ccncc1)C(=O)O; Cha = N[C@@H](CC1CCCCC1)C(=O)O; Cit = NC(=O)NCCC[C@H](N)C(=O)O; Ile(3ξ) = CCC(C)[C@H](N)C(=O)O; Thr(3ξ) = CC(O)[C@H](N)C(=O)O; Pen = CC(C)(S)[C@H](N)C(=O)O; Carboxymethyl = O=C(O)C*; NMeA = CN[C@@H](C)C(=O)O; Orn = NCCC[C@H](N)C(=O)O; Dab = NCC[C@H](N)C(=O)O; Dap = NC[C@H](N)C(=O)O

Target: T1, PE-labeled human PD-L1-Ig binding to Jurkat cell line over-expressing human PD-1 (Jurkat-PD-1) (Homo sapiens, UniProt Q15116)
T1 construct: expressed in transfected cells; host or cells: Jurkat
Test: Jurkat-PD-1 Cell Binding High-Content Screening Assay (CBA): Method 1
Settings: Jurkat-hPD-1 cells, PE-labeled PD-L1-Ig 20 nM final; read-out: Jurkat HPDL1 PD1 IC50 (uM) (Method 1)

T1 sequence (Q15116 25-288): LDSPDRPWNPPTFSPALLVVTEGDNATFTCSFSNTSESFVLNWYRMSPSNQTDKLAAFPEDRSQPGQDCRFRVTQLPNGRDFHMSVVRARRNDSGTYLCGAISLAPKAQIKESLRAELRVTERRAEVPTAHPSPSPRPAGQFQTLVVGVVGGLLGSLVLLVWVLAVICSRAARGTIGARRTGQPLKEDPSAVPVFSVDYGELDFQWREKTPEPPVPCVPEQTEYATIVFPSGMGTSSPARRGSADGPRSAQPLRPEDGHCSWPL

| IC50 | Structure (SMILES) |
| --- | --- |
| 0.03 µM | Cc1cccc(C[C@@H]2NC(=O)[C@H](CC(=O)O)NC(=O)[C@H](Cc3ccc(OCC(=O)O)cc3)NC(=O)[C@H](Cc3ccncc3)NC(=O)CSC[C@@H](C(=O)N[C@@H](CN)C(N)=O)NC(=O)[C@H](C(C)O)NC(=O)[C@H](C(C)(C)O)NC(=O)[C@H](CC3CCCCC3)NC(=O)[C@H](CCN)NC(=O)[C@@H](CC(C)C)NC(=O)[C@H](C)N(C)C(=O)[C@H](CCCNC(N)=O)NC(=O)[C@H](Cc3ccc(-c4ccccc4)cc3)NC(=O)[C@H](Cc3ccc(OCC(=O)O)cc3)NC2=O)c1 (stereo partly drawn) [Compound 2168] ({CH2CO}-[4Pal]Y(Carboxymethyl)D[Phe(3-Me)]Y(Carboxymethyl)[Bip][Cit][NMeA][dL][Dab][Cha][Val(3-OH)][Thr(3ξ)]C[Dap]-NH2; thioether N-14) |
| 0.66 µM | Cc1cccc(C[C@@H]2NC(=O)[C@H](CC(=O)O)NC(=O)[C@H](Cc3ccc(OCC(=O)O)cc3)NC(=O)[C@H](Cc3ccc(OCC(=O)O)cc3)NC(=O)CSC(C)(C)[C@@H](C(=O)N[C@H](C)C(N)=O)NC(=O)[C@H](CCCNC(N)=O)NC(=O)[C@H](C(C)C)NC(=O)[C@H](CC3CCCCC3)NC(=O)[C@H](CCN)NC(=O)[C@@H](CC(C)C)NC(=O)[C@H](C)N(C)C(=O)[C@H](Cc3cnc[nH]3)NC(=O)[C@H](Cc3ccc(-c4ccccc4)cc3)NC(=O)[C@H](Cc3ccc(C(N)=O)cc3)NC2=O)c1 [Compound 2126] ({CH2CO}-Y(Carboxymethyl)Y(Carboxymethyl)D[Phe(3-Me)][Phe(4-CONH2)][Bip]H[NMeA][dL][Dab][Cha]V[Cit][Pen][dA]-NH2; thioether N-14) |
| 0.03 µM | Cc1cccc(C[C@@H]2NC(=O)[C@H](CC(=O)O)NC(=O)[C@H](Cc3ccc(OCC(=O)O)cc3)NC(=O)[C@H](Cc3ccncc3)NC(=O)CSC[C@@H](C(=O)N[C@@H](CCN)C(N)=O)NC(=O)[C@H](CC(=O)O)NC(=O)[C@H](C(C)(C)O)NC(=O)[C@H](CC3CCCCC3)NC(=O)[C@H](CCN)NC(=O)[C@@H](CC(C)C)NC(=O)[C@H](C)N(C)C(=O)[C@H](Cc3ccc(OCC(=O)O)cc3)NC(=O)[C@H](Cc3ccc(-c4ccccc4)cc3)NC(=O)[C@H](Cc3ccc(OCC(=O)O)cc3)NC2=O)c1 [Compound 2190] ({CH2CO}-[4Pal]Y(Carboxymethyl)D[Phe(3-Me)]Y(Carboxymethyl)[Bip]Y(Carboxymethyl)[NMeA][dL][Dab][Cha][Val(3-OH)]DC[Dab]-NH2; thioether N-14) |
| 0.02 µM | Cc1cccc(C[C@@H]2NC(=O)[C@H](CC(=O)O)NC(=O)[C@H](Cc3ccc(OCC(=O)O)cc3)NC(=O)[C@H](Cc3ccncc3)NC(=O)CSC[C@@H](C(=O)N[C@@H](CCN)C(N)=O)NC(=O)[C@H](CCC(=O)O)NC(=O)[C@H](C(C)(C)O)NC(=O)[C@H](CC3CCCCC3)NC(=O)[C@H](CCN)NC(=O)[C@@H](CC(C)C)NC(=O)[C@H](C)N(C)C(=O)[C@H](Cc3ccc(C(=O)O)cc3)NC(=O)[C@H](Cc3ccc(-c4ccccc4)cc3)NC(=O)[C@H](Cc3ccc(C(=O)O)cc3)NC2=O)c1 [Compound 2196] ({CH2CO}-[4Pal]Y(Carboxymethyl)D[Phe(3-Me)][Phe(4-COOH)][Bip][Phe(4-COOH)][NMeA][dL][Dab][Cha][Val(3-OH)]EC[Dab]-NH2; thioether N-14) |
| 0.01 µM | CCC(C)[C@@H]1NC(=O)[C@H](Cc2ccc(-c3ccccc3)cc2)NC(=O)[C@H](C(C)C)NC(=O)[C@H](Cc2c[nH]c3ccccc23)NC(=O)[C@H](CC(=O)O)NC(=O)[C@H](Cc2ccc(OCC(=O)O)cc2)NC(=O)[C@H](Cc2cnc[nH]2)NC(=O)CSC[C@@H](C(=O)N[C@@H](CCN)C(N)=O)NC(=O)[C@H](CO)NC(=O)[C@H](C(C)(C)O)NC(=O)[C@H](CC2CCCCC2)NC(=O)[C@H](CCN)NC(=O)[C@@H](CC(C)C)NC(=O)[C@H](C)N(C)C1=O (stereo partly drawn) [Compound 2204] ({CH2CO}-HY(Carboxymethyl)DWV[Bip][Ile(3ξ)][NMeA][dL][Dab][Cha][Val(3-OH)]SC[Dab]-NH2; thioether N-14) |

The next lines start with the compound.

| Structure (SMILES) | IC50 |
| --- | --- |
| CC(C)C[C@@H]1NC(=O)[C@H](CCCCN)NC(=O)[C@@H](CC(C)C)NC(=O)[C@H](C)N(C)C(=O)[C@H](Cc2cnc[nH]2)NC(=O)[C@H](Cc2ccc(-c3ccccc3)cc2)NC(=O)[C@H](C(C)C)NC(=O)[C@H](Cc2c[nH]c3ccccc23)NC(=O)[C@H](CC(=O)O)NC(=O)[C@H](Cc2ccc(O)cc2)NC(=O)[C@H](CC(N)=O)NC(=O)CSC[C@@H](C(=O)NCC(N)=O)NC(=O)[C@H]([C@@H](C)O)NC(=O)[C@H](C(C)C)NC1=O [Compound 1484] ({CH2CO}-NYDWV[Bip]H[NMeA][dL]KLVTCG-NH2; thioether N-14) | 0.07 µM |
| CC(C)C[C@H]1NC(=O)[C@H](C)N(C)C(=O)[C@H](CCCN)NC(=O)[C@H](Cc2ccc(-c3ccccc3)cc2)NC(=O)[C@H](C(C)C)NC(=O)[C@H](Cc2c[nH]c3ccccc23)NC(=O)[C@H](CC(=O)O)NC(=O)[C@H](Cc2ccc(O)cc2)NC(=O)[C@H](CC(N)=O)NC(=O)CSC[C@@H](C(=O)N[C@@H](C)C(N)=O)NC(=O)[C@H]([C@@H](C)O)NC(=O)[C@H](C(C)C)NC(=O)[C@H](CC2CCCCC2)NC(=O)[C@H](CCN)NC1=O [Compound 1278] ({CH2CO}-NYDWV[Bip][Orn][NMeA][dL][Dab][Cha]VTCA-NH2; thioether N-14) | 0.01 µM |
| CC(C)C[C@@H]1NC(=O)[C@H](CCCNC(=N)N)NC(=O)[C@@H](CC(C)C)NC(=O)[C@H](C)N(C)C(=O)[C@H](CCCNC(=N)N)NC(=O)[C@H](Cc2ccc(-c3ccccc3)cc2)NC(=O)[C@H](C(C)C)NC(=O)[C@H](Cc2c[nH]c3ccccc23)NC(=O)[C@H](CC(=O)O)NC(=O)[C@H](Cc2ccc(O)cc2)NC(=O)[C@H](Cc2cccnc2)NC(=O)CSC[C@@H](C(=O)N[C@@H](C)C(N)=O)NC(=O)[C@H](CO)NC(=O)[C@H](C(C)C)NC1=O [Compound 1036] ({CH2CO}-[3Pal]YDWV[Bip]R[NMeA][dL]RLVSCA-NH2; thioether N-14) | 0.05 µM |
| Cc1cccc(C[C@@H]2NC(=O)[C@H](CC(=O)O)NC(=O)[C@H](Cc3ccc(OCC(=O)O)cc3)NC(=O)[C@H](Cc3ccc(OCC(=O)O)cc3)NC(=O)CSC[C@@H](C(N)=O)NC(=O)[C@H](CCC(=O)O)NC(=O)[C@H](C(C)C)NC(=O)[C@H](CC3CCCCC3)NC(=O)[C@H](CCN)NC(=O)[C@@H](CC(C)C)NC(=O)[C@H](C)N(C)C(=O)[C@H](Cc3ccc(OCC(=O)O)cc3)NC(=O)[C@H](Cc3ccc(-c4ccccc4)cc3)NC(=O)[C@H](Cc3ccc(OCC(=O)O)cc3)NC2=O)c1 [Compound 1657] ({CH2CO}-Y(Carboxymethyl)Y(Carboxymethyl)D[Phe(3-Me)]Y(Carboxymethyl)[Bip]Y(Carboxymethyl)[NMeA][dL][Dab][Cha]VEC-NH2; thioether N-14) | 0.05 µM |
| CC(C)C[C@@H]1NC(=O)[C@H](CCCNC(=N)N)NC(=O)[C@@H](CC(C)C)NC(=O)[C@H](C)N(C)C(=O)[C@H](C(C)C)NC(=O)[C@H](Cc2ccc(-c3ccccc3)cc2)NC(=O)[C@H](C(C)C)NC(=O)[C@H](Cc2cccc(C(F)(F)F)c2)NC(=O)[C@H](CC(=O)O)NC(=O)[C@H](Cc2ccc(O)cc2)NC(=O)[C@H](CC(N)=O)NC(=O)CSC[C@@H](C(=O)N[C@@H](C)C(N)=O)NC(=O)[C@H]([C@@H](C)O)NC(=O)[C@H](C(C)C)NC1=O [Compound 1291] ({CH2CO}-NYD[Phe(3-CF3)]V[Bip]V[NMeA][dL]RLVTCA-NH2; thioether N-14) | 0.02 µM |
